# From US8785600B2, “Anti-GCC antibody molecules and related compositions and methods” (Millennium Pharmaceuticals, Inc., priority 2009, dated 2014)
# Several values for one entry are separate records, joined by “and”; a condition that tells them apart may be missing. Identical values can stand only once.
# What was measured:
# rat GCC = molecular target: T1, rat GCC (Rattus norvegicus, UniProt P23897); assay: Cross-reactivity with GCC orthologs (ELISA); type: binding
# T1 sequence (P23897 23-1072): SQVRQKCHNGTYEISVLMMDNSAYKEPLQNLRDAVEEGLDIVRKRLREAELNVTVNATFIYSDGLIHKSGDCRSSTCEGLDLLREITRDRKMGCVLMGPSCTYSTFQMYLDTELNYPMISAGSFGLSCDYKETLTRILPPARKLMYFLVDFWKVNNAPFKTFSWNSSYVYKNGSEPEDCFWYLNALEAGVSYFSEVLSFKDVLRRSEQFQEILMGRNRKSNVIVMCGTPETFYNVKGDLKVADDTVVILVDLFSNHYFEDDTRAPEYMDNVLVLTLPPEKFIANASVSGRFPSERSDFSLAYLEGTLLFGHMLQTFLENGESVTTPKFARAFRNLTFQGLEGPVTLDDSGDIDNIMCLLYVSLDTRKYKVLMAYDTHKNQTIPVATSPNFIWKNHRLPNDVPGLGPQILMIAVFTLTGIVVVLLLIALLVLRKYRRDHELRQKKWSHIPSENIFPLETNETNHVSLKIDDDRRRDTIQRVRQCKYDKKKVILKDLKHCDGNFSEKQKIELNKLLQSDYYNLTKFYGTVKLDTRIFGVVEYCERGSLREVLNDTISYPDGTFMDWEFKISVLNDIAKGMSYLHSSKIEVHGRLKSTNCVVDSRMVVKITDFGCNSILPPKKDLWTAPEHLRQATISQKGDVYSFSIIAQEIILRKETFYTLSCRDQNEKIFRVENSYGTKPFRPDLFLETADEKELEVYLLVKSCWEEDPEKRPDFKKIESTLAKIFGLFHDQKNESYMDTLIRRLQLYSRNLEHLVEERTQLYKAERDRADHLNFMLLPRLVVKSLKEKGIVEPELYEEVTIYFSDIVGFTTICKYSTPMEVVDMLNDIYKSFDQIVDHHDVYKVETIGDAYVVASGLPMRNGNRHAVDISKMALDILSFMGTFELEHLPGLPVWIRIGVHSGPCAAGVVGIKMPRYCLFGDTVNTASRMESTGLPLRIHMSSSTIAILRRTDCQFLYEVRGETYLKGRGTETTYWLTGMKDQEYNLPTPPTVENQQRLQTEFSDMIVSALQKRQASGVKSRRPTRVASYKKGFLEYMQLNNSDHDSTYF
# Excerpt: FIG. 4 depicts ELISA binding assays to test antibody cross-reactivity of GCC orthologs.
# GCC-ECD-Fc (TOK107-hIg) = assay: BIACORE T100 affinity measurement; type: binding, human; details: for ka (M^−1s^−1) / kd (s^−1): Avg. (95% Conf. Int.); for ka / kd: single replicates, immobilized mAb, 22° C.
# Protocol: Step 1: MAb 5F9 (Prep A) was diluted to 20 μg/mL in 10 mM sodium acetate, pH 4.0 and Reference 5F9 MAb (Prep B) was diluted to 10 μg/mL in 10 mM sodium acetate, pH 4.0. Each mAb was covalently immobilized to several CM4 BIACORE chips using standard amine coupling. For each CM4 chip prepared, Prep A 5F9 was immobilized over two flow cells at around 75-100 RU while Prep B 5F9 was immobilized to one flow cell at around 70-80 RU. The remaining fourth flow cell of each CM4 chip was used as the reference flow cell.
# Step 2: The stock concentration of GCC-ECD-Fc (TOK107-hIg) was determined using the methods detailed by Pace et al. in Protein Science, 4:2411 (1995), and Pace and Grimsley in Current Protocols in Protein Science 3.1.1-3.1.9 (2003).
# Step 3: For each prepared CM4 chip described in Step 1, GCC-ECD-Fc was injected for 2 minutes at a concentration range of 202 nM-1.6 nM (2× serial dilution) followed by a 7 minute dissociation. Samples were randomly injected in triplicate with several buffer inject cycles interspersed for double referencing. […] A flow rate of 100 μL/min was used for all experiments and all surfaces were regenerated with a 20 second pulse of 10 mM Glycine-HCl (pH 2.0). All samples were prepared in the running buffer which was Hepes-buffered saline, 0.005% polysorbate 20, pH 7.4 (HBS-P) with 100 μg/mL of BSA added.
# Step 4: All sensorgram (plot of surface plasmon resonance vs time) data were processed with Scrubber 2.0 software (BioLogic Software, Campbell, Australia) and globally fit to a 1:1 interaction model including a term for the mass transport constant km using CLAMP™ software (Myszka and Morton Trends Biochem. Sci. 23:149-150 (1998)).
# The 1:1 model provided a very good fit to the data as long as the mAb immobilization levels were kept low enough so that the Rmax resulting from the global analysis of the sensorgram data was at least below 12 RU for each surface. […] Data from two flow cells of GCC-ECD-Fc binding to Prep A 5F9 from the same CM4 chip were simultaneously fit whenever possible, however. […] This isn't surprising due to the fact that GCC-ECD-Fc is a bivalent construct and a higher surface density of immobilized mAb most likely increases the probability that the GCC-ECD-Fc binds avidly to the surface. Replicates reported for this study include only those data that fit well to the 1:1 interaction model. The resulting KD's and rate constants of all replicates for Prep A 5F9 and the Prep B reference mAb are listed in Table 9 and Table 10, respectively.
# Chain of GCC-ECD-Fc (TOK107-hIg) (as listed by the source): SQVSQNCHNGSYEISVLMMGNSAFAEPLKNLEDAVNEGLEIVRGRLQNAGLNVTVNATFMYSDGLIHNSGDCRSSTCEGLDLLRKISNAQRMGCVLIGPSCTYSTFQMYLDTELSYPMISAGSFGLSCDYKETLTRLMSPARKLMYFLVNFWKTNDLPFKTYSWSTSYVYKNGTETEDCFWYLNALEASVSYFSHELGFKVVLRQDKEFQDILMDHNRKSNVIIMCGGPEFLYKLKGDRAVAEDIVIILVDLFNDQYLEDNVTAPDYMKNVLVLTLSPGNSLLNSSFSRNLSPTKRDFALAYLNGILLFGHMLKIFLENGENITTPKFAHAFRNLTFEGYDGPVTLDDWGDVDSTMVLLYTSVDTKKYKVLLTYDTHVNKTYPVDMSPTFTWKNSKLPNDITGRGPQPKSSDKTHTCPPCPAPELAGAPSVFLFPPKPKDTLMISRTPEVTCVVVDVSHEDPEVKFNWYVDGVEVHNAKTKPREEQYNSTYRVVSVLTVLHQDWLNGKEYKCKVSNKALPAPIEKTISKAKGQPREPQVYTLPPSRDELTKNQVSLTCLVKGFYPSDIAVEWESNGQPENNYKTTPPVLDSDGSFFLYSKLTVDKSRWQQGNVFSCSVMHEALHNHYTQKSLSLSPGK
substance,measurement,setting,value
"5F9: Human anti-GCC mAb (IgG2, kappa) of hybridoma 5F9, ATCC PTA-8132; VH SEQ ID NO:18, VL SEQ ID NO:20; also engineered as IgG1",Binding to rat GCC,rat GCC,does not bind
same,ka (M^−1s^−1),GCC-ECD-Fc (TOK107-hIg); listed as Prep A 5F9,1.10 (0.13) × 10^5 M^−1s^−1
same,kd (s^−1),GCC-ECD-Fc (TOK107-hIg); listed as Prep A 5F9,1.46 (0.59) × 10^−5 s^−1
same,ka (M^−1s^−1),GCC-ECD-Fc (TOK107-hIg); listed as Prep B 5F9,1.07 (0.25) × 10^5 M^−1s^−1
same,kd (s^−1),GCC-ECD-Fc (TOK107-hIg); listed as Prep B 5F9,1.13 (0.54) × 10^−5 s^−1
same,ka,GCC-ECD-Fc (TOK107-hIg); listed as Prep A 5F9,96400 M⁻¹ s⁻¹ and 106000 M⁻¹ s⁻¹ and 120000 M⁻¹ s⁻¹ and 107000 M⁻¹ s⁻¹ and 122000 M⁻¹ s⁻¹
same,kd,GCC-ECD-Fc (TOK107-hIg); listed as Prep A 5F9,1.77e-05 s⁻¹ and 1.19e-05 s⁻¹ and 1.1e-05 s⁻¹ and 2.15e-05 s⁻¹ and 1.11e-05 s⁻¹
same,ka,GCC-ECD-Fc (TOK107-hIg); listed as Prep B 5F9,96800 M⁻¹ s⁻¹ and 120000 M⁻¹ s⁻¹ and 90900 M⁻¹ s⁻¹ and 121000 M⁻¹ s⁻¹
same,kd,GCC-ECD-Fc (TOK107-hIg); listed as Prep B 5F9,7.64e-06 s⁻¹ and 1.24e-05 s⁻¹ and 9.57e-06 s⁻¹ and 1.54e-05 s⁻¹
